Four compounds from patent US20230398130A1, “METHODS AND COMPOSITIONS FOR DIFFERENTIATING STEM CELLS” (Massachusetts Institute of Technology, priority 2020, published 2023) can be followed below.

Assay [1] deals with ISC-enriched organoids. Kind of assay: Primary screen, 384-well 2.5-D organoid differentiation (ENR+CD, 6 days, Target Selective Inhibitor Library, vs whole-plate median): ATP (CellTiter-Glo 3D, CTG). The following applies: for Dose.FC.CTG: FC vs plate median. Background: ATP-based viability assays read luminescence as a measure of living cells.
Assay [2] deals with ISC-enriched organoids. Kind of assay: Primary screen, 384-well 2.5-D organoid differentiation (ENR+CD, 6 days): basal lysozyme secretion (LYZ.NS). The format is cell-based, murine. The following applies: for Dose.FC.LYZ.NS: FC vs plate median. The source says: (§1) High-throughput screening.
The test system of assay [3] is ISC-enriched organoids. Kind of assay: Primary screen, 384-well 2.5-D organoid differentiation (ENR+CD, 6 days): carbachol-induced lysozyme secretion (LYZ.S). Type of assay: cell-based, murine. To be noted: FC vs plate median.
Excerpt: as §1

Setting [4] is: Dose 0.08 uM, standard z score of FC.
The mark [5] stands for this setting: Dose 0.40 uM, standard z score of FC.
[6] abbreviates: Dose 2.00 uM, standard z score of FC.
Setting [7] is: Dose 10.00 uM, standard z score of FC.
[8] abbreviates: Dose 0.08 uM, primary screen, standard z score.
The mark [9] stands for this setting: Dose 0.40 uM, primary screen, standard z score.
The mark [10] stands for this setting: Dose 2.00 uM, primary screen, standard z score.
[11] abbreviates: Dose 10.00 uM, primary screen, standard z score.

As for `CN[C@@H](C)C(=O)N[C@H](C(=O)N1CCC[C@H]1C(=O)Nc1snnc1-c1ccccc1)C1CCCCC1` [GDC-0152], the Dose.FC.CTG in the assay on ISC-enriched organoids [1] (Dose 0.08 uM, ENR+CD, 6 days) is 0.151 log 2 fold change; in the assay on ISC-enriched organoids [1] (Dose 0.40 uM, ENR+CD, 6 days), 0.158 log 2 fold change; in the assay with ISC-enriched organoids [1] (Dose 2.00 uM, ENR+CD, 6 days), 0.003 log 2 fold change; in the assay with ISC-enriched organoids [1] (Dose 10.00 uM, ENR+CD, 6 days) it was 0.241 log 2 fold change. Also, the Z.CTG with ISC-enriched organoids [1] (setting [4]) is 0.361; in the assay with ISC-enriched organoids [1] (setting [5]), 0.377; with ISC-enriched organoids [1] (setting [6]), 0.008; in the assay on ISC-enriched organoids [1] (setting [7]), 0.575. Also, the Dose.FC.LYZ.NS with ISC-enriched organoids [2] (Dose 0.08 uM, ENR+CD, 6 days) is listed as −0.002 log 2 fold change; with ISC-enriched organoids [2] (Dose 0.40 uM, ENR+CD, 6 days) it was −0.020 log 2 fold change; in the assay with ISC-enriched organoids [2] (Dose 2.00 uM, ENR+CD, 6 days), 0.083 log 2 fold change; in the assay with ISC-enriched organoids [2] (Dose 10.00 uM, ENR+CD, 6 days), 0.103 log 2 fold change. Also, the Z.LYZ.NS in the assay on ISC-enriched organoids [2] (setting [4]) is on record as −0.013; with ISC-enriched organoids [2] (setting [5]) it was −0.176; in the assay on ISC-enriched organoids [2] (setting [6]), 0.724; with ISC-enriched organoids [2] (setting [7]), 0.900. The Dose.FC.LYZ.S with ISC-enriched organoids [3] (Dose 0.08 uM, ENR+CD, 6 days) is on record as −0.020 log 2 fold change; in the assay with ISC-enriched organoids [3] (Dose 0.40 uM, ENR+CD, 6 days), −0.036 log 2 fold change; in the assay on ISC-enriched organoids [3] (Dose 2.00 uM, ENR+CD, 6 days), −0.057 log 2 fold change; in the assay with ISC-enriched organoids [3] (Dose 10.00 uM, ENR+CD, 6 days) it was −0.009 log 2 fold change.

As for `CS(=O)(=O)N1CCN(Cc2cc3nc(-c4cccc5[nH]ncc45)nc(N4CCOCC4)c3s2)CC1` [GDC-0941], the Dose.FC.CTG in the assay with ISC-enriched organoids [1] (Dose 0.08 uM, ENR+CD, 6 days) is 0.283 log 2 fold change; in the assay with ISC-enriched organoids [1] (Dose 0.40 uM, ENR+CD, 6 days), 0.022 log 2 fold change; in the assay on ISC-enriched organoids [1] (Dose 2.00 uM, ENR+CD, 6 days), −0.197 log 2 fold change; with ISC-enriched organoids [1] (Dose 10.00 uM, ENR+CD, 6 days) it was −1.223 log 2 fold change. Also, the Z.CTG in the assay with ISC-enriched organoids [1] (setting [4]) was 0.677; in the assay with ISC-enriched organoids [1] (setting [5]) it was 0.053; with ISC-enriched organoids [1] (setting [6]), −0.472; with ISC-enriched organoids [1] (setting [7]), −2.921. Moreover, the Dose.FC.LYZ.NS with ISC-enriched organoids [2] (Dose 0.08 uM, ENR+CD, 6 days) is on record as 0.008 log 2 fold change; in the assay on ISC-enriched organoids [2] (Dose 0.40 uM, ENR+CD, 6 days), −0.013 log 2 fold change; with ISC-enriched organoids [2] (Dose 2.00 uM, ENR+CD, 6 days) it was −0.128 log 2 fold change; with ISC-enriched organoids [2] (Dose 10.00 uM, ENR+CD, 6 days), −0.156 log 2 fold change. For the same compound, the Z.LYZ.NS is recorded as 0.070 with ISC-enriched organoids [2] (setting [4]), −0.112 in the assay with ISC-enriched organoids [2] (setting [5]), −1.113 with ISC-enriched organoids [2] (setting [6]) and −1.362 in the assay on ISC-enriched organoids [2] (setting [7]). For the same compound, the Dose.FC.LYZ.S is recorded as 0.018 log 2 fold change in the assay with ISC-enriched organoids [3] (Dose 0.08 uM, ENR+CD, 6 days); −0.076 log 2 fold change in the assay with ISC-enriched organoids [3] (Dose 0.40 uM, ENR+CD, 6 days); −0.248 log 2 fold change in the assay with ISC-enriched organoids [3] (Dose 2.00 uM, ENR+CD, 6 days); −0.257 log 2 fold change in the assay with ISC-enriched organoids [3] (Dose 10.00 uM, ENR+CD, 6 days).

On to `NC(=O)c1cccc(-c2cc(Nc3ccc(OC(F)(F)F)cc3)ncn2)c1` [GNF-2], for which the Dose.FC.CTG with ISC-enriched organoids [1] (Dose 0.08 uM, primary screen) was 0.157 log 2 fold change; in the assay on ISC-enriched organoids [1] (Dose 0.40 uM, primary screen), 0.090 log 2 fold change; in the assay with ISC-enriched organoids [1] (Dose 2.00 uM, primary screen), 0.074 log 2 fold change; in the assay with ISC-enriched organoids [1] (Dose 10.00 uM, primary screen), 0.100 log 2 fold change. In addition, the Z.CTG with ISC-enriched organoids [1] (setting [8]) amounted to 0.376; with ISC-enriched organoids [1] (setting [9]), 0.214; in the assay on ISC-enriched organoids [1] (setting [10]), 0.176; with ISC-enriched organoids [1] (setting [11]), 0.240. Besides, the Dose.FC.LYZ.NS is given as 0.159 log 2 fold change in the assay on ISC-enriched organoids [2] (Dose 0.08 uM, primary screen); −0.024 log 2 fold change in the assay on ISC-enriched organoids [2] (Dose 0.40 uM, primary screen); 0.012 log 2 fold change with ISC-enriched organoids [2] (Dose 2.00 uM, primary screen); −0.033 log 2 fold change in the assay with ISC-enriched organoids [2] (Dose 10.00 uM, primary screen). For the same compound, the Z.LYZ.NS is recorded as 1.386 in the assay with ISC-enriched organoids [2] (setting [8]), −0.206 in the assay with ISC-enriched organoids [2] (setting [9]), 0.102 in the assay on ISC-enriched organoids [2] (setting [10]) and −0.286 in the assay with ISC-enriched organoids [2] (setting [11]). In addition, the Dose.FC.LYZ.S was 0.121 log 2 fold change in the assay with ISC-enriched organoids [3] (Dose 0.08 uM, primary screen); 0.001 log 2 fold change in the assay on ISC-enriched organoids [3] (Dose 0.40 uM, primary screen); 0.046 log 2 fold change with ISC-enriched organoids [3] (Dose 2.00 uM, primary screen); −0.015 log 2 fold change in the assay with ISC-enriched organoids [3] (Dose 10.00 uM, primary screen).

`CC1=C(C(=O)Nc2cc3cn[nH]c3cc2F)C(c2ccc(C(F)(F)F)cc2)CC(=O)N1` (centres unmarked) [GSK429286A]: the Dose.FC.CTG in the assay with ISC-enriched organoids [1] (Dose 0.08 uM, primary screen) is on record as 0.527 log 2 fold change; with ISC-enriched organoids [1] (Dose 0.40 uM, primary screen) it was 0.545 log 2 fold change; with ISC-enriched organoids [1] (Dose 2.00 uM, primary screen), 0.488 log 2 fold change; in the assay with ISC-enriched organoids [1] (Dose 10.00 uM, primary screen), 0.370 log 2 fold change. The Z.CTG in the assay with ISC-enriched organoids [1] (setting [8]) turned out to be 1.260; in the assay with ISC-enriched organoids [1] (setting [9]), 1.302; in the assay with ISC-enriched organoids [1] (setting [10]) it was 1.166; with ISC-enriched organoids [1] (setting [11]) it was 0.883. Further, the Dose.FC.LYZ.NS stood at 0.137 log 2 fold change in the assay with ISC-enriched organoids [2] (Dose 0.08 uM, primary screen); 0.128 log 2 fold change with ISC-enriched organoids [2] (Dose 0.40 uM, primary screen); 0.140 log 2 fold change in the assay on ISC-enriched organoids [2] (Dose 2.00 uM, primary screen); 0.059 log 2 fold change with ISC-enriched organoids [2] (Dose 10.00 uM, primary screen). Also, the Z.LYZ.NS in the assay with ISC-enriched organoids [2] (setting [8]) was determined as 1.197; with ISC-enriched organoids [2] (setting [9]) it was 1.117; in the assay with ISC-enriched organoids [2] (setting [10]) it was 1.222; in the assay on ISC-enriched organoids [2] (setting [11]), 0.517. Besides, the Dose.FC.LYZ.S was determined as 0.247 log 2 fold change with ISC-enriched organoids [3] (Dose 0.08 uM, primary screen); 0.283 log 2 fold change in the assay with ISC-enriched organoids [3] (Dose 0.40 uM, primary screen); 0.245 log 2 fold change in the assay on ISC-enriched organoids [3] (Dose 2.00 uM, primary screen); 0.099 log 2 fold change with ISC-enriched organoids [3] (Dose 10.00 uM, primary screen).
